Assay results as given in patent publication US8192734B2, “Compositions and methods for bone strengthening” (Cornell University, priority 2007, dated 2012).

Key:
mice = details: cited from earlier work
rats = details: cited from earlier work
[1] = tested on: pigs fed P-adequate corn-soybean meal basal diet; assay: Expt 2: metatarsal and femur mineral concentrations (ICP); assay type: in vivo, pig
Experimental: After the breaking strength analysis, samples (˜100 to 200 mg) of metatarsals in both experiments and femur in Experiment 2 from the right legs were used for mineral analysis. Cortical bones were isolated after removing attached connective tissue using a stainless steel scalpel and collecting individual shards using needle-nosed pliers with plastic-covered clamps. […] Concentrations of individual elements in the dried bone samples were measured using inductively coupled argon plasma spectrophotometer (ICAP 61E Trace Analyzer, Thermo Jarell Ash corporation, Franklin, Mass.)(31). Samples were digested in a mixture of HNO3 and HClO4 (9:1, vol/vol), and then diluted in 5% HNO3 before analysis.

[2] = tested on: pigs fed P-adequate corn-soybean meal basal diet; assay: Expt 2: metatarsal and femur breaking strength, three-point bending test; assay type: in vivo, pig; details: main effect, phytase 2,000 U/kg or Sr 50 mg/kg
Experimental: Third and 4th metatarsals in both experiments and femur (right leg) in Experiment 2 were prepared by manually removing surrounding skin, muscle and other tissues. Bones were stored in closed plastic bags at 4° C. until strength analysis. Maximal breaking load was measured using an Instron 4500 Machine (Canton, Mass.) at room temperature (23° C.) by subjecting each bone to a three-point bending test^(28). During mechanical tests, force was applied to the center of the bone held by supports 2.0 cm apart for metatarsals and 3.3 cm apart for femur. The crosshead speed was set at 50 mm/min and the sample rate was 10 points/s. Final strength was determined from load-displacement curves indicating the maximum loads. The metatarsal breaking strength was expressed as the mean strength of four bones from both left and right feet of pigs in Experiment 1, and as the mean of the two bones from the right foot of pigs in Experiment 2.

[3] = tested on: pigs fed P-adequate corn-soybean meal basal diet; assay: Expt 2: femur geometrical and strength properties; assay type: in vivo, pig; details: phytase 2000 U/kg and/or Sr 50 mg/kg, n=6
Experimental: A three-point bending test was conducted on the dissected bones to generate load-deformation curves with an Instron Model 5566 (Norwood, Mass.). Mechanical properties of bones were calculated using formula as previously described^(29). Bone cross sections were cut at the mid-point of loading and used to determine area moment of inertia. Cross sections were submersed for 5 min in a 0.4 mol/L sodium hypochlorite solution to remove periosteum and marrow tissue, and then embedded in blue clay (Play-Doh, Hasbro, Pawtucket, R.I.) to prevent depth-of-field distortions and to enhance contrasts. The embedded sections were scanned with a flat-bed scanner (Epson Perfection Model 3490, Long Beach, Calif.) and analyzed using Image J software (30) to measure the x-y coordinates of bone pixels.

[4] = tested on: pigs fed P-adequate corn-soybean meal basal diet; assay: Expt 2: BMC, BMD and bone area by dual energy X-ray absorptiometry; assay type: in vivo, pig; details: main effect, phytase 2,000 U/kg or Sr 50 mg/kg
Experimental: In Experiment 2, bone mineral content (BMC, g) and bone mineral density (BMD, g/cm^2) of 3rd and 4th metatarsals from the left foot and femur from the left leg of each pig were measured. After being thawed to room temperature, entire bones were placed on a rice bag (to remove background effects) and scanned by dual energy X-ray absorptiometry using the GE Lunar Prodigy instrument (GE Lunar, Prodigy, Madison Wis.) in the small animal scan mode. Values of BMC and BMD were predicted by analysis of scans using Prodigy software (version 10.10.038).

[5] = main effect of Sr 50 mg/kg, P<0.0001
[6] = phytase 2000 U/kg and/or Sr 50 mg/kg, n=6

[Cl-].[Cl-].[Sr+2] [strontium chloride]
LD50 (mice): 147.6 mg/kg body weight

strontium acetate
LD50 (rats): 1.16 mmol/kg

[Br-].[Br-].[Sr+2] [strontium bromide]
LD50 (rats): 1 g/kg body weight

[I-].[I-].[Sr+2] [strontium iodide]
LD50 (rats): 800 mg/kg body weight

O=C([O-])[O-].[Sr+2] [Sr, SrCO3]
elevation of metatarsal concentration of Sr [1, 5]: 4 fold | enhancement of femur concentration of Sr [1, 5]: 3.9 fold | femur Cr concentration [1, 6]: 7.0 mg/kg | femur Fe concentration [1, 6]: 6.9 mg/kg | femur Mg concentration [1, 6]: 5.4 g/kg | femur Mn concentration [1, 6]: 0.6 mg/kg | femur Na concentration [1, 6]: 8.0 g/kg | femur P concentration [1, 6]: 176.3 g/kg | femur S concentration [1, 6]: 1.1 g/kg | femur Sr concentration [1, 6]: 418.9 mg/kg | femur Zn concentration [1, 6]: 209.6 mg/kg | metatarsal Cr concentration [1, 6]: 26.6 mg/kg | metatarsal Fe concentration [1, 6]: 23.5 mg/kg | metatarsal Mg concentration [1, 6]: 3.5 g/kg | metatarsal Mn concentration [1, 6]: 2.8 mg/kg | metatarsal Na concentration [1, 6]: 6.8 g/kg | metatarsal P concentration [1, 6]: 88.1 g/kg | metatarsal S concentration [1, 6]: 1.0 g/kg | metatarsal Sr concentration [1, 6]: 330.6 mg/kg | metatarsal Zn concentration [1, 6]: 146.8 mg/kg | improvement in breaking strength of femur [2]: 10% | improvement in breaking strength of metatarsals [2]: 11% | femur Cross-sectional area [3]: 151 mm^2 | femur Cross-sectional radius [3]: 9.0 mm | femur Maximum bending moment [3]: 2286 kg × mm | femur Maximum stress [3]: 4.3 kg/mm^2 | femur Modulus of elasticity [3]: 50 kg/mm^2 | femur Moment of inertia [3]: 4891 mm^4 | femur Strain [3]: 0.05 | femur Yield bending moment [3]: 1384 kg-mm | femur Yield stress [3]: 2.6 kg/mm^2 | elevation of BMD of the two bones (metatarsal, femur) [4]: 6% | enhancement of BMC in both bones (metatarsal, femur) [4]: 6 to 8%
